Laboratory results as given in ChEMBL document CHEMBL4507268 (2021).

Assays:
Settings in all cases: Compound concentration 1000.0 nM
[1] = biological target: T1, Receptor-interacting serine/threonine-protein kinase 1 (Homo sapiens) (UniProt Q13546)
T1 sequence (whole entry): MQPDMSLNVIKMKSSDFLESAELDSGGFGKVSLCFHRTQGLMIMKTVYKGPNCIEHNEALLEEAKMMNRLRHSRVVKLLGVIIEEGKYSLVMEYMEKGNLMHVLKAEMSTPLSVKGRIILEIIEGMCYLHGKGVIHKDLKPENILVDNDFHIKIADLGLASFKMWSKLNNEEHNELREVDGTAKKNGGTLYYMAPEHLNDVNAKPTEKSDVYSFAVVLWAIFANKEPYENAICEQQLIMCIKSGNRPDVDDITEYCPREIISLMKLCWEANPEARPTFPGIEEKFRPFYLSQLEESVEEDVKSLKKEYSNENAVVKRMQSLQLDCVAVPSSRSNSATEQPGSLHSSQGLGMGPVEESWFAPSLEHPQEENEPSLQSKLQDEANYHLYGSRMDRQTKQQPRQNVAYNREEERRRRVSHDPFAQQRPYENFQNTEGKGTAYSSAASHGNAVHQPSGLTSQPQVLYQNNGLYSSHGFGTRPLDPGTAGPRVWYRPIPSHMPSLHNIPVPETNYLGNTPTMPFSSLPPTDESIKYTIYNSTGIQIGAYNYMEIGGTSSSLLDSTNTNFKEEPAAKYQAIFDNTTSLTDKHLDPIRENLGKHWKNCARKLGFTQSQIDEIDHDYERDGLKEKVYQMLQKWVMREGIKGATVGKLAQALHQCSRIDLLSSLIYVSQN

[2] = biological target: Mitogen-activated protein kinase kinase kinase kinase 2 (Homo sapiens) (UniProt Q12851)
[3] = system: ALK tyrosine kinase receptor (Homo sapiens), Q9UM73 [L1196M]
[4] = biological target: Macrophage colony-stimulating factor 1 receptor (Homo sapiens) (UniProt P07333)
[5] = biological target: TGF-beta receptor type-2 (Homo sapiens) (UniProt P37173)
Chain of TGF-beta receptor type-2 (Homo sapiens) (P37173 whole entry): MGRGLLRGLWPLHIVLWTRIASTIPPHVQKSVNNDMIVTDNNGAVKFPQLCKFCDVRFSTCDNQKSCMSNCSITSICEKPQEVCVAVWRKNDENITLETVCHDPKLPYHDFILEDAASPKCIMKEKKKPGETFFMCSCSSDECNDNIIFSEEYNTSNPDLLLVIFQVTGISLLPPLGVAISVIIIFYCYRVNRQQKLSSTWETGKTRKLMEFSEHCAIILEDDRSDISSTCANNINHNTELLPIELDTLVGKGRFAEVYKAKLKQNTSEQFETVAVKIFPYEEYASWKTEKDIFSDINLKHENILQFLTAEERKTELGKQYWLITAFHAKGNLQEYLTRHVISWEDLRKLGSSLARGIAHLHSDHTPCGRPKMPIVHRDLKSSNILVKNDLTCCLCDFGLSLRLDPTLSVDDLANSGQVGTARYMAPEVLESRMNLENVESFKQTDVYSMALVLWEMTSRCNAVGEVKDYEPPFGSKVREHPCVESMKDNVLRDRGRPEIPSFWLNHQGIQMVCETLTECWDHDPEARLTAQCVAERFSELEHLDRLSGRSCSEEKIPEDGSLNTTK

[6] = biological target: Calcium/calmodulin-dependent protein kinase type 1G (Homo sapiens) (UniProt Q96NX5)
Chain of Calcium/calmodulin-dependent protein kinase type 1G (Homo sapiens) (Q96NX5 whole entry): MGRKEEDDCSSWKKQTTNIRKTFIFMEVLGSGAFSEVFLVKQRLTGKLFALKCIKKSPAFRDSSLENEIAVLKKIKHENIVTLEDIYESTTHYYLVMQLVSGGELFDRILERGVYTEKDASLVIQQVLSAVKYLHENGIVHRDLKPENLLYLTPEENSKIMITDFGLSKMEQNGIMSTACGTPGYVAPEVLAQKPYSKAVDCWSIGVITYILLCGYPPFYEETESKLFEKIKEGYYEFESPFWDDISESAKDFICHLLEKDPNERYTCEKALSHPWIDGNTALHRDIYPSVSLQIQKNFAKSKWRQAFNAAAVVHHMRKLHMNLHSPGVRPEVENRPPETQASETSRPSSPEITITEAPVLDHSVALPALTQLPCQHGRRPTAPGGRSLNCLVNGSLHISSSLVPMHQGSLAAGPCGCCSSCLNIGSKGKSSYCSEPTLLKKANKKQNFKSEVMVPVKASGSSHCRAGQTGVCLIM

[7] = biological target: Cyclin-dependent kinase 4 (Homo sapiens) (UniProt P11802)
[8] = biological target: T2, Serine/threonine-protein kinase NLK (Homo sapiens) (UniProt Q9UBE8)
T2 sequence (whole entry): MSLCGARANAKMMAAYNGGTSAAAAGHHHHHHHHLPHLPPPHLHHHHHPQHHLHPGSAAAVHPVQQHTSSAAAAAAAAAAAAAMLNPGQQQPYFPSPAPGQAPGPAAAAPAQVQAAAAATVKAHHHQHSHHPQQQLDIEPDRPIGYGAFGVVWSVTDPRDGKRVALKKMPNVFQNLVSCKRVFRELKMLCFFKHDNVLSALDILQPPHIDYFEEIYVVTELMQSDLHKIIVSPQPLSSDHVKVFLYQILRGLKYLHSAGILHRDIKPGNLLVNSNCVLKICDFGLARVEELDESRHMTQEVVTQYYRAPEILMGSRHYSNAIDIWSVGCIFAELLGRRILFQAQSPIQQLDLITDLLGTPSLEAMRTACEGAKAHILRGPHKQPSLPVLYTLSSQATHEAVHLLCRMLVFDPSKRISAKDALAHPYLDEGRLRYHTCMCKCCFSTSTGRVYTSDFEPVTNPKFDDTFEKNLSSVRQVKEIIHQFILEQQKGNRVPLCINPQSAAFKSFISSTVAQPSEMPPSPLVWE

[9] = biological target: Serine/threonine-protein kinase Nek5 (Homo sapiens) (UniProt Q6P3R8)
Chain of Serine/threonine-protein kinase Nek5 (Homo sapiens) (Q6P3R8 whole entry): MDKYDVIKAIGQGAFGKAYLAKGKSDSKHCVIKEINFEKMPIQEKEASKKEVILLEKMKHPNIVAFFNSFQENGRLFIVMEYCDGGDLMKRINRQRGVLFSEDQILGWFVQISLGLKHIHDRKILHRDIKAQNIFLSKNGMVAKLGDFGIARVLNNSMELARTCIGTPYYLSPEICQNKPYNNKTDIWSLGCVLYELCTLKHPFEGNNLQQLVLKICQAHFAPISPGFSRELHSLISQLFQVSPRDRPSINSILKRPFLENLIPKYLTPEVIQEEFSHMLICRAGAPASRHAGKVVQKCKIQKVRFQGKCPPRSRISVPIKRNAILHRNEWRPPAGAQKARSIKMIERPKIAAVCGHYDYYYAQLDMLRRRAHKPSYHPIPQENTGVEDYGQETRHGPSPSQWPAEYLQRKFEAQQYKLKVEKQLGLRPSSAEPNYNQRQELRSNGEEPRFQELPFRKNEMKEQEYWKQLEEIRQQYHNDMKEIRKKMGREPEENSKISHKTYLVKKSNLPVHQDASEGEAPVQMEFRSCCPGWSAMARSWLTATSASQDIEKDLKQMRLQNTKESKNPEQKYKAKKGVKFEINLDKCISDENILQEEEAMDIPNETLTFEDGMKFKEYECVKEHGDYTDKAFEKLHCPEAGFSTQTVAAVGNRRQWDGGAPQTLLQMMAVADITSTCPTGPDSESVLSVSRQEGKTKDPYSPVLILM

[10] = biological target: Tyrosine-protein kinase ABL2 (Homo sapiens) (UniProt P42684)
[11] = biological target: Serine/threonine-protein kinase MRCK gamma (Homo sapiens) (UniProt Q6DT37)
[12] = biological target: Serine/threonine-protein kinase SIK1 (Homo sapiens) (UniProt P57059)
Chain of Serine/threonine-protein kinase SIK1 (Homo sapiens) (P57059 whole entry): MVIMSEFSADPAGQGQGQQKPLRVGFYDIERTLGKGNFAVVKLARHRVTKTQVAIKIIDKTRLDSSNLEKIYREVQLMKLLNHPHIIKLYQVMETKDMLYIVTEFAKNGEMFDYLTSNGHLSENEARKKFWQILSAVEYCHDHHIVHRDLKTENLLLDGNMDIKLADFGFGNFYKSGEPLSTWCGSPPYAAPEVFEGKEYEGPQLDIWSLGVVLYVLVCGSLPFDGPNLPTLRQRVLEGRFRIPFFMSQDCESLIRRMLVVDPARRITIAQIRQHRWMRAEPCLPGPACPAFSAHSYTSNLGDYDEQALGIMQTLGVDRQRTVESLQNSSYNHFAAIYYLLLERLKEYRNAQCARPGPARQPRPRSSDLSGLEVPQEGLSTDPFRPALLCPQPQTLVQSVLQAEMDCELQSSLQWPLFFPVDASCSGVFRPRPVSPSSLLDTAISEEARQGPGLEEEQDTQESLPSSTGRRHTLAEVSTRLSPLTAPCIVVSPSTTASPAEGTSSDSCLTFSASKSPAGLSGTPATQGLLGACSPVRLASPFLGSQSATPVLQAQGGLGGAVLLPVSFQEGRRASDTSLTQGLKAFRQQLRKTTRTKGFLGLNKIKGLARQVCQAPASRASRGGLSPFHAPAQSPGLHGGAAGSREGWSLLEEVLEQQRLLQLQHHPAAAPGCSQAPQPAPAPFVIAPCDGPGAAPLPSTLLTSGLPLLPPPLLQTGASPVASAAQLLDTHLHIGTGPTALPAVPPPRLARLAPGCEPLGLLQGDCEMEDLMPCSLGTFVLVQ

[13] = biological target: Homeodomain-interacting protein kinase 2 (Homo sapiens) (UniProt Q9H2X6)
Chain of Homeodomain-interacting protein kinase 2 (Homo sapiens) (Q9H2X6 whole entry, looked up): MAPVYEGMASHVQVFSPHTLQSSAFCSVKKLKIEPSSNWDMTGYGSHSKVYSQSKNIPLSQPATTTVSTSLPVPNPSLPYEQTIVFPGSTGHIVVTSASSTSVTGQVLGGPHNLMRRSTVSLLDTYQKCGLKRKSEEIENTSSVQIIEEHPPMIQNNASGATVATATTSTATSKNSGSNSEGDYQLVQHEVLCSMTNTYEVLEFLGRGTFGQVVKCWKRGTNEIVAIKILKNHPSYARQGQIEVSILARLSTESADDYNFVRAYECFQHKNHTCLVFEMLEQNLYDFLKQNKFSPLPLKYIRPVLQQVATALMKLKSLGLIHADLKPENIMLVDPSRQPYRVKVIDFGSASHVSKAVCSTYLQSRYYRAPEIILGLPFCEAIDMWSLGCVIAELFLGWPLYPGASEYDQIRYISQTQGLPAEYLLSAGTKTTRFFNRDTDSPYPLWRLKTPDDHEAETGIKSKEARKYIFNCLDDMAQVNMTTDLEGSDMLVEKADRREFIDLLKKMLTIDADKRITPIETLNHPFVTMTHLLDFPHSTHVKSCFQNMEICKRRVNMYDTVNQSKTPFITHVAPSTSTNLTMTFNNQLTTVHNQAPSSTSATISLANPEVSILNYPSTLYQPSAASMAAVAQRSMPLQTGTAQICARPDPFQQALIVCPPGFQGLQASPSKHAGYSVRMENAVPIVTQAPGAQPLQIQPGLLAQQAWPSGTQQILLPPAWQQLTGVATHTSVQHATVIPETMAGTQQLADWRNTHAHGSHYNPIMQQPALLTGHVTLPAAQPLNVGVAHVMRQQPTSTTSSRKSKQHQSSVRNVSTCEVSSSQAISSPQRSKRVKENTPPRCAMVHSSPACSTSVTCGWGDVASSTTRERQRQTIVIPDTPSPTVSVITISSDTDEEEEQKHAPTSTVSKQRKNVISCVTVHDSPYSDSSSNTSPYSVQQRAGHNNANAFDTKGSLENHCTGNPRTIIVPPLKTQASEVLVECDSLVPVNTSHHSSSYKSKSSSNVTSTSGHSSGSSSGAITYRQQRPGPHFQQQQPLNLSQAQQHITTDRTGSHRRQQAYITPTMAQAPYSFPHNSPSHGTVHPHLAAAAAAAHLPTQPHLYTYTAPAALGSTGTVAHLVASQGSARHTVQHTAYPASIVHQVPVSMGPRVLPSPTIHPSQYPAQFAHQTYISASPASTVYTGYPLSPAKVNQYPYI

[14] = biological target: High affinity nerve growth factor receptor (Homo sapiens) (UniProt P04629)
[15] = biological target: Serine/threonine-protein kinase SIK3 (Homo sapiens) (UniProt Q9Y2K2)
[16] = biological target: Mitogen-activated protein kinase kinase kinase 6 (Homo sapiens) (UniProt O95382)
Chain of Mitogen-activated protein kinase kinase kinase 6 (Homo sapiens) (O95382 whole entry): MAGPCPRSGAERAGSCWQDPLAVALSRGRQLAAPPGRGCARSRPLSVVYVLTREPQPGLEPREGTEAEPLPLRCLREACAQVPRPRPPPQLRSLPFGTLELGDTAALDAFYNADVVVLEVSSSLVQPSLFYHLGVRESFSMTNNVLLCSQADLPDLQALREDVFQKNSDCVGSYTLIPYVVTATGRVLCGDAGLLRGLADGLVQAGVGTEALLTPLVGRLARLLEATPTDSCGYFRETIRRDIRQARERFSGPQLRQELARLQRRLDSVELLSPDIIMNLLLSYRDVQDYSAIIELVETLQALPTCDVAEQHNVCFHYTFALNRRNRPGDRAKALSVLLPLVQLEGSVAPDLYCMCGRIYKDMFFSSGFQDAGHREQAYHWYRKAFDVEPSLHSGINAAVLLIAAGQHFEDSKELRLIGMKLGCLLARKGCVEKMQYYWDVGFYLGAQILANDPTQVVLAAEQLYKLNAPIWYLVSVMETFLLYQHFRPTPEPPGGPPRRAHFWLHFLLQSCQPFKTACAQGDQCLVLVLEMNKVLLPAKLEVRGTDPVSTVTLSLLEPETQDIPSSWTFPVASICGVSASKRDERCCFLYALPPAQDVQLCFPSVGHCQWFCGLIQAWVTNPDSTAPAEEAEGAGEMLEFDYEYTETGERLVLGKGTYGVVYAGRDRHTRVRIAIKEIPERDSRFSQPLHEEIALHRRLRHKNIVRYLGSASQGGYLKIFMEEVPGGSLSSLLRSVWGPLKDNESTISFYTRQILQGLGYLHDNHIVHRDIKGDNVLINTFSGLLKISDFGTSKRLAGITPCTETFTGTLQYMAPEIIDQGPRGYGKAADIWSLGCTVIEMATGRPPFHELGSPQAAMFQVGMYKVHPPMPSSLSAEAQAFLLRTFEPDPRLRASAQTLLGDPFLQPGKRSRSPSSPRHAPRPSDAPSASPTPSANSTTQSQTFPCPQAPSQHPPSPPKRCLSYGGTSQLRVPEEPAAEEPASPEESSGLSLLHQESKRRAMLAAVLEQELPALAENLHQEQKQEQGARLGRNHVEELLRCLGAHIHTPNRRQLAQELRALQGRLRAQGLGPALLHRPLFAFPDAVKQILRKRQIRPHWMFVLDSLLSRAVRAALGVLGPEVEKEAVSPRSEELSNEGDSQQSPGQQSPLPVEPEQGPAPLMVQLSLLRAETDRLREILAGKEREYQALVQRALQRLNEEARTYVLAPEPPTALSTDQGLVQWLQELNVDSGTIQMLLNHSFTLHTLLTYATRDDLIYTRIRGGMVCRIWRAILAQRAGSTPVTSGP

[17] = biological target: Serine/threonine-protein kinase DCLK1 (Homo sapiens) (UniProt O15075)
[18] = biological target: Mitogen-activated protein kinase 8 (Homo sapiens) (UniProt P45983)
[19] = biological target: Dual specificity tyrosine-phosphorylation-regulated kinase 1A (Homo sapiens) (UniProt Q13627)
[20] = biological target: Cyclin-dependent kinase 11B (Homo sapiens) (UniProt P21127)
[21] = biological target: T3, Rhodopsin kinase GRK1 (Homo sapiens) (UniProt Q15835)
T3 sequence (whole entry): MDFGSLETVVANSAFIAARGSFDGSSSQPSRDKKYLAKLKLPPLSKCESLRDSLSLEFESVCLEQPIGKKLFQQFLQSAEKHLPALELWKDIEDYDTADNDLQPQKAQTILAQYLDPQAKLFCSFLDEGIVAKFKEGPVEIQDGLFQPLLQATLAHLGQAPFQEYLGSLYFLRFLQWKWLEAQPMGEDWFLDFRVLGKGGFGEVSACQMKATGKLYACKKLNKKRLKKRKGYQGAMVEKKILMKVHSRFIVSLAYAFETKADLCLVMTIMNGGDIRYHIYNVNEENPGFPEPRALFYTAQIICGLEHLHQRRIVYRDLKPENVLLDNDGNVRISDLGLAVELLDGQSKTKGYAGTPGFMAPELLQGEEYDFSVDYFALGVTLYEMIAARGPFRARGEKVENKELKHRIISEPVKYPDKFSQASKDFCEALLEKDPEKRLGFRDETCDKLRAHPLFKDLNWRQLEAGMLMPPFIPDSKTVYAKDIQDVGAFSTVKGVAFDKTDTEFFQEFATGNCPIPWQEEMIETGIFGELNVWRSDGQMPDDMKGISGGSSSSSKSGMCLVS

Measured: residual activity

Cc1nc(C2CCN(C(=O)c3ccc(OC(F)(F)F)cc3N)CC2)c2ncc(N3CCN(C)CC3)cc2n1 [BAY-693]
inactive: [1] 98% | [2] 80% | [3] 98% | [4] 94% | [5] 93% | [6] 100% | [7] 99% | [8] 100% | [9] 100% | [10] 93% | [11] 100% | [12] 100% | [13] 93% | [14] 85% | [15] 91% | [16] 100% | [17] 85% | [18] 98% | [19] 100% | [20] 87% | [21] 100%

CN1CCN(c2cnc3c(C4CCN(C(=O)c5ccc(OC(F)(F)F)cc5N)CC4)ncnc3c2)CC1 [BAY-885]
inactive: [1] 100% | [2] 82% | [3] 100% | [4] 92% | [5] 88% | [6] 100% | [7] 98% | [8] 100% | [9] 100% | [10] 100% | [11] 100% | [12] 92% | [13] 100% | [14] 100% | [15] 100% | [16] 100% | [17] 85% | [18] 97% | [19] 100% | [20] 82% | [21] 96%
